Data published in US20240085426A1, “TRIPLE QUADRUPOLE-BASED MULTIPLE REACTION MONITORING FOR CLINICAL THERAPEUTIC RESPONSE PREDICTION IN CANCER” (NATIONAL CANCER CENTER, priority 2020, published 2024).

Columns and labels:
KATO-III cell line = test: 72-hour MTT experiment in KATO-III gastric cancer cell line; assay type: cell-based; conditions: Homo sapiens, FGFR2-amplified cell line
SNU-5 cells = test: 72-hour MTT experiment in SNU-5 gastric cancer cell line; assay type: cell-based; conditions: Homo sapiens, SNU-5, MET-amplified cell line

| SMILES | IC50 (KATO-III cell line) [nM] | IC50 (SNU-5 cells) [nM] |
| --- | --- | --- |
| COCc1c(-c2cc3cc(C)cc(OC)c3s2)c2c(N)ncnn2c1CN1CCNC(=O)C1 [rogaratinib] | 31 | > 40 |
| C[C@@H](Oc1cc(-c2cnn(C3CCNCC3)c2)cnc1N)c1c(Cl)ccc(F)c1Cl [crizotinib] | 22.6 | 17.5 |
